Here are results for five compounds from US20120076742A1, “Topical drug delivery system with dual carriers” (priority 2010, published 2012).

In series [1] the test system is Staph aureus, MRSA, Klebsiella pneumoniae, E. coli, Proteus vulgaris, Pseudomonas aeruginosa, Enterobacter cloacae, Acinetobacter lwoffi, Acinetobacter …. Description: In-vitro Petri dish comparison of Lots and control antibiotics (FIGS. 16-36). The class given is cell-based. The settings on record: identical size drops (diameters of ZOA); FIGS. 16-25.
The test system of the next series is HL-60 cells. To be noted: cited from earlier work; for amount at which desired cellular responses occurred: priming experiments.
Series [2] concerns mouse embryonic stem cells and embryoid bodies. The settings on record: cited from earlier work.
The next series concerns MRSA. The settings on record: IV, 8 days following admission.
A short description of series [3]: Study I: vancomycin peaks and troughs in patient. To be noted: 1.5 g BID, Q12, seven doses. The class given is in vivo, human. The procedure: Fri 2/5: Detection of a Strep-A strain, confirmed by culture study. Shifted from gentamycin to vancomycin 1.5 g BID, Q12. Patient was kept on this dosing regimen until 2/8 (date of discharge from hospital).
Mon 2/8: Patient received the last of seven doses of vancomycin. Throughout all of this their peaks (within 1 hour of receiving vancomycin) and troughs (before receiving vancomycin) were normal (ranges not noted here). Patient was discharged from the hospital on this date.

With `CO[C@@]1(NC(=O)Cc2cccs2)C(=O)N2C(C(=O)O)=C(COC(N)=O)CS[C@@H]21` [Cefoxicillin], the “zones of inhibition of control active agents compared with the formulations of the invention” value in series [1] is reported as “considerably reduced zones of inhibition”.
As to `C[S+](C)[O-]` [DMSO, dimethyl sulfoxide], the “amount at which desired cellular responses occurred” value in the series on HL-60 cells is on record as “less than 2%”. In the series on HL-60 cells (priming of the cells by pretreatment), the “subsequent retinoid-induced TGM2 expression” value was “increases”. Besides, the “effect on epigenetic profiles” value in series [2] is “upregulation of mRNA and protein expression”.
For the compound `CC[C@H]1OC(=O)[C@H](C)[C@@H](O[C@H]2C[C@@](C)(OC)[C@@H](O)[C@H](C)O2)[C@H](C)[C@@H](O[C@@H]2O[C@H](C)C[C@H](N(C)C)[C@H]2O)[C@](C)(O)C[C@@H](C)C(=O)[C@H](C)[C@@H](O)[C@]1(C)O` [Erythromycin], in series [1], the “zones of inhibition of control active agents compared with the formulations of the invention” value is on record as “considerably reduced zones of inhibition”.
In the case of `CN[C@H](CC(C)C)C(=O)N[C@H]1C(=O)N[C@@H](CC(N)=O)C(=O)N[C@H]2C(=O)N[C@H]3C(=O)N[C@H](C(=O)N[C@H](C(=O)O)c4cc(O)cc(O)c4-c4cc3ccc4O)[C@H](O)c3ccc(c(Cl)c3)Oc3cc2cc(c3O[C@@H]2O[C@H](CO)[C@@H](O)[C@H](O)[C@H]2O[C@H]2C[C@](C)(N)[C@H](O)[C@H](C)O2)Oc2ccc(cc2Cl)[C@H]1O` [Vancomycin], the “patient response to treatment” value with MRSA was “did not respond”. For the same compound, the “zones of inhibition of control active agents compared with the formulations of the invention” value in series [1] is on record as “considerably reduced zones of inhibition”. In addition, the “peaks (within 1 hour of receiving) and troughs (before receiving)” value in series [3] is recorded as “normal”.
With vitamin D, in the series on HL-60 cells, the “amount at which desired cellular responses occurred” value is “about 100 nM”.
